Results on six compounds are retold here after article PMC7304243, “Dimeric γ-AApeptides With Potent and Selective Antibacterial Activity” (Frontiers in Chemistry, 2020).

Like-named read-outs stand apart in the source and are kept apart here. Some results are limits rather than exact numbers.

The test system of series [1] is vancomycin-resistant E. faecalis (VRE, ATCC 700802). The format is cell-based. The conditions noted are these: lowest concentration that completely inhibits growth, repeated three times. How it is done:
(§1) Having obtained all compounds, their antibacterial efficacy was subsequently evaluated by measuring the minimum inhibitory concentration (MIC). Three significant resistant bacteria, including methicillin-resistant Staphylococcus aureus (MRSA) (ATCC 33591), Staphylococcus epidermidis (MRSE) (RP62A), and vancomycin-resistant E. faecalis (VRE) (ATCC 700802), were chosen for our studies. Meanwhile, hemolytic activity (HC50) was also measured to assess the selectivity of these compounds toward bacteria and blood cells. […] Importantly, HC50 of almost all compounds are equal or more than 250 μg/mL. […] This is consistent with our previous findings that significant hydrophobicity, particularly two long alkyl tails, could form hydrophobic clusters that prevent the formation of amphipathic structures necessary for antimicrobial activity (Li et al., [2014b]; Singh et al., [2018]). […] MICs of 10–14 unveiled that proper bulky hydrophobic groups were beneficial in the design of bactericide. These five compounds have the same (3r,5r,7r)-1-methyladamantane side chain but different tails, including C9, as well as C11 alkyl chain, ethylbenzene, and (3r,5r,7r)-1-methyladamantane. Among them, 10, which had no tail, was the best toward MRSA and MRSE, with the MICs of 5 μg/mL and 2 μg/mL respectively. […] Compounds 7 and 8 also shared a similar trend. It appears that compounds with bulky groups have better activity, due to the lager molecular volume or shorter molecular length of these bulky groups. Therefore, the selection of proper hydrophobic bulky groups when designing HDP-mimicking agents is considerably crucial (Wu et al., [2012]; Teng et al., [2016a]).
(§2) The antimicrobial assay of the compounds was conducted on the following three bacteria strains: methicillin-resistant S.aureus (MRSA, ATCC 33591), methicillin-resistant S. epidermidis (MRSE, RP62A), and vancomycin-resistant E. faecalis (VRE, ATCC 700802). The procedures were followed as reported previously. […] All measurements were repeated at least three times with duplicates each time.

Series [2] deals with methicillin-resistant S. epidermidis (MRSE, RP62A). The format is cell-based, Staphylococcus epidermidis. The note with it: lowest concentration that completely inhibits growth, repeated three times. How it is done:
as §1, §2

The subject of series [3] is methicillin-resistant S. aureus (MRSA, ATCC 33591). The format is cell-based, Staphylococcus aureus. The conditions noted are these: lowest concentration that completely inhibits growth, repeated three times. As for the experimental part: as §1, §2
Series [4] deals with red blood cell (RBC) of mice. The series is described as follows: Hemolysis study (HC50). The format is cell-based. As for the experimental part:
Fresh red blood cell (RBC) of mice was collected by centrifuge with the speed of 500 g for 10 mins until the supernatant is clear. Then, the RBC was diluted with PBS for 20-fold. After adding 50 μL PBS in each vial on 96 plates, 1 mg/mL compounds were serial diluted until reaching the lowest concentration 1.9 μg/mL. Diluted RBC was added into each vial and incubated at 37°C for 1 h. Then, plates were centrifuged at 2,301 g (3,500 rpm) for 10 mins. 30 uL supernatant in each vial was added into 100 μL PBS and read Biotek Synergy HT plate reader at 540 nm. The hemolytic activity was calculated by the formula % hemolysis = (Abssample-AbsPBS) / (AbsTriton-AbsPBS) × 100%. 1% Triton X-100 were used as the positive control and 1 × PBS buffer was used as the negative control.

For series [5], the system named is MRSA. As to the kind of experiment: Drug resistance study, 20 passages. The format is cell-based, Staphylococcus aureus. As for the experimental part: Drug resistance has already been recognized as one of the fastest growing threats all over the world. […] The MIC of compound 2 was determined daily, and then the bacteria suspension with half of the MIC was diluted to 10^6 CFU/mL and incubated with compound to test its activity until 20 passages had been reached.
The experiment was carried out by following our previously reported protocol (Su et al., [2017]; Niu et al., [2018]). The study was conducted for 20 passages.

Series [6] has as its system MRSA. The series is described as follows: Fluorescence microscopy, DAPI and PI. The format is cell-based, Staphylococcus aureus. The note with it: 6 μg/mL, 2 h. How it is done:
Experiments of fluorescent microscopy is also a broadly used method to determine the integrity of bacteria membrane. Propidium iodide (PI) and 4′,6-diamidino-2-henylindole (DAPI) are commercially available dyes that stain dead or injured cells with compromised membrane and all cells irrespective of their viability, respectively. The efficacy of compound 2 to interrupt the bacterial membrane was evaluated by these two dyes.
Fluorescent dyes propidium iodide (PI) and 4′,6′-diamidino-2-phenylindole dihydrochloride (DAPI) can be used to distinguish the viable cell from the dead cells. After obtaining the mid-logarithmic phase bacteria solution as above, the bacteria solution was diluted 100 times and mixed with compound 2 at the concentration of 6 μg/mL. Then the mixture was incubated 2 h and centrifuged at 1,690 g (3,000 rpm) for 15 min at 4°C to harvest the cells. After washing with PBS for 3 times, PI (5 μg/mL) and DAPI (10 μg/mL) was used to dye cells 20 min respectively. Controls were carried out without compounds. The bacterial cells were then visualized and analyzed by employing the LEICA DM 2000 optical microscope with an oil-immersion objective (40 ×). The experiment was repeated three times with duplicates each time.

The subject of series [7] is MRSA. As to the kind of experiment: Membrane depolarization study, DiSC3(5). The format is cell-based, Staphylococcus aureus. The conditions noted are these: MRSA 10^6 CFU/mL, 1 μM DiSC3(5), compound added after 30 min, ex 622 nm / em 670 nm. The source says: HDPs are known to act on the bacterial membrane. As the mimics of HDPs, compounds 1–14 were also expected to kill bacteria through disintegrating the bacterial cell membrane. To this end, 3, 3′- Dipropylthiadicarbocyanine iodide [DiSC3(5)] was used as a fluorogenic probe to detect and measure changes in transmembrane potential. Briefly, fluorescence intensity is very weak when it accumulates on hyperpolarized membranes due to their self-quenching (Niu et al., [2018]). […] This method was used to initially determine the bacterial membrane permeability caused by the compound 2.
Mid log phase MRSA bacteria solution was obtained as above. Then, cells were collected and washed with 5 mM HEPES and 5 mM glucose respectively. 5 mM HEPES:5 mM glucose:100 mM KCl = 1:1:1 was used to resuspended bacteria cells (10^6 CFU/mL). Following that, 200 μL of bacterial suspension and 1 μM DiSC3(5) were included in a 96-well plate, and the fluorescence of the suspension was monitored at room temperature for 30 min at excitation wavelength of 622 nm and emission wavelength of 670 nm. After 30 min, compound 2 was added to the wells and the increased potential was monitored. The experiment was repeated three times with duplicates each time.

Series [8] relates to MRSA. The series is described as follows: TEM study. The format is cell-based, Staphylococcus aureus. The note with it: MRSA 10^6 CFU/mL, 6 μg/mL, 2 h. How it is done:
Transmission electron microscopy (TEM) is a straightforward method to visualize the interruptive effect of compounds on the membrane of bacteria. Mid log phase MRSA without the treatment of compound 2 had intact membrane (Figure 5A).
After being incubated to mid log phase, MRSA(10^6 CFU/mL) was mixed with 6 μg/mL compound 2 for 2 h. Then the bacteria cells were collected and washed with PBS and DI water. Following that, bacteria was resuspended in deionized water. Control bacterial samples were obtained without adding drugs. Above samples were applied to TEM grids by 5 μL bacteria solution, and the grids were allowed to dry in vacuum oven at the temperature of 45°C for 45 seconds. After being dried, TEM images were obtained on a FEI Morgagni 268D TEM with an Olympus MegaView III camera at 60 kV on the microscope. The microscope used AnalySiS software to run the camera.

Series [9] deals with MRSA. As to the kind of experiment: Time-kill kinetics. The format is cell-based, Staphylococcus aureus. As for the experimental part: Time-kill kinetic study of compound 2 were investigated. After being incubated from one colony in 4 mL TSB medium overnight at 37 °C while shaking, MRSA was diluted 2,500 times to another fresh 4 mL TSB solution and grew for 6~8 h to mid-logarithmic phase. Suspension [10^6 colony-forming units per milliliter (CFU/mL) according to the read of OD value] was made and then incubated with different concentration of 2 at 37°C for 10 min, 30 min, 60 min, 120 min respectively. The MRSA and drug mixture were diluted 10^2-fold and spread on the TSB agar plates. These plates were incubated at 37°C overnight. The numbers of colonies on each plate were transferred to lg[CFU/mL] and plotted against the incubation time. The experiment was repeated three times with duplicates each time.

[10] abbreviates: mouse RBC in PBS, 37°C, 1 h, absorbance 540 nm, 1% Triton X-100 positive control.

Turning to `CCCCCCCCCCCCCC(=O)N(CC(=O)Nc1ccc(NC(=O)CN(C[C@@H](N)CCCCN)C(=O)CCCCCCCCCCCCC)cc1)C[C@@H](N)CCCCN` [Compound 4, N,N'-((1,4-phenylenebis(azanediyl))bis(2-oxoethane-2,1-diyl))bis(N-(2,6-diaminohexyl)tetradecanamide)], the “MIC VRE” value in [1] was more than 25 µg/mL. In addition, the “MIC MRSE” value in [2] is more than 25 µg/mL. Besides, the “MIC MRSA” value in [3] was more than 25 µg/mL. In addition, the “Hemolysis (HC50)” value in series [4] (setting [10]) is more than 250 µg/mL.
With `CCn1cc(C(=O)O)c(=O)c2cc(F)c(N3CCNCC3)cc21` [norfloxacin, reference compound], the “Increase of MIC after 20 passages” value in series [5] (20 passages) is 10 fold.
On to `CCCCCCCCCC(=O)N[C@@H](CCCCN)CN(CC(=O)Nc1ccc(NC(=O)CN(C[C@H](CCCCN)NC(=O)CCCCCCCCC)C(=O)CC23CC4CC(CC(C4)C2)C3)cc1)C(=O)CC12CC3CC(CC(C3)C1)C2` [Compound 11, N,N'-((((1,4-phenylenebis(azanediyl))bis(2-oxoethane-2,1-diyl))bis ((2-((3r,5r,7r)-adamantan-1-yl)acetyl)azanediyl))bis(6-aminohexane-1,2-diyl))bis(decanamide)], for which the “MIC VRE” value in series [1] was more than 25 µg/mL. The “MIC MRSE” value in series [2] was more than 25 µg/mL. Also, the “MIC MRSA” value in series [3] is more than 25 µg/mL. For the same compound, the “Hemolysis (HC50)” value in series [4] (setting [10]) was more than 250 µg/mL.
As to `CCCCCCCCCC(=O)N(CC(=O)Nc1ccc(NC(=O)CN(C[C@@H](N)CCCCN)C(=O)CCCCCCCCC)cc1)C[C@@H](N)CCCCN` [Compound 2, N,N'-((1,4-phenylenebis(azanediyl))bis(2-oxoethane-2,1-diyl))bis(N-(2,6-diaminohexyl)decanamide)], the “DAPI / PI staining of treated MRSA” value in series [6] was “fluorescence could be detected in both channels”. The “DiSC3(5) fluorescence intensity after adding compound” value in series [7] is “fluorescence intensity increased dramatically”. For the same compound, the “TEM observation of treated MRSA” value in series [8] is on record as “large amount of cell debris can be detected”. In [5] (20 passages at half of the MIC), the “Change of MIC values after 20 passages” value is recorded as “almost unchanged”. The “Time-kill result at 6 μg/mL” value in series [9] (MRSA 10^6 CFU/mL, 6 μg/mL, 37°C, up to 120 min) is “still colonies after 120 mins”. Besides, the “Time in which all bacteria were eradicated” value is not above 120 min in series [9] (MRSA 10^6 CFU/mL, 12 μg/mL, 37°C) and not above 120 min in [9] (MRSA 10^6 CFU/mL, 24 μg/mL, 37°C). In addition, the “Time to eradicate MRSA” value in series [9] (abstract statement, concentration not given) is not above 2 h.
Consider “N-(2-(2-((1s,3s)-adamantan-1-yl)acetamido)-6-aminohexyl)-N-(2-((4-(2-(N-(2-(2-((3r,5r,7r)-adamantan-1-yl)acetamido)-6-aminohexyl) decanamido) acetamido) phenyl) amin)−2-oxoethyl)decanamide [Compound 7]”, for which the “MIC VRE” value in series [1] stood at 20 µg/mL. For the same compound, the “MIC MRSE” value in series [2] is 2 µg/mL. Besides, in series [3], the “MIC MRSA” value is 10 µg/mL. Further, the “Hemolysis (HC50)” value in series [4] stood at 250 µg/mL.
On to `CCCCCCCCCCCCCCCC(=O)N(CC(=O)Nc1ccc(NC(=O)CN(C[C@@H](N)CCCCN)C(=O)CCCCCCCCCCCCCCC)cc1)C[C@@H](N)CCCCN` [Compound 5, N,N'-((1,4-phenylenebis(azanediyl))bis(2-oxoethane-2,1-diyl))bis(N-(2,6-diaminohexyl)palmitamide)], for which the “MIC VRE” value in series [1] was more than 25 µg/mL. Also, the “MIC MRSE” value in series [2] is more than 25 µg/mL. The “MIC MRSA” value in [3] is more than 25 µg/mL. Besides, the “Hemolysis (HC50)” value in series [4] (setting [10]) is more than 250 µg/mL.
